Measurements: paper PMC4854315, “Discovery of a novel allosteric inhibitor-binding site in ERK5: comparison with the canonical kinase hinge ATP-binding site” (Acta Crystallographica. Section D, Structural Biology, 2016)

What was measured:
Assay in all cases: Z'-LYTE kinase panel
Assay type in all cases: biochemical
[1] = biological target: T1, AXL (Homo sapiens, UniProt P30530)
T1 construct: purchased ThermoFisher (SelectScreen, Z'-LYTE)
T1 sequence (P30530 26-894): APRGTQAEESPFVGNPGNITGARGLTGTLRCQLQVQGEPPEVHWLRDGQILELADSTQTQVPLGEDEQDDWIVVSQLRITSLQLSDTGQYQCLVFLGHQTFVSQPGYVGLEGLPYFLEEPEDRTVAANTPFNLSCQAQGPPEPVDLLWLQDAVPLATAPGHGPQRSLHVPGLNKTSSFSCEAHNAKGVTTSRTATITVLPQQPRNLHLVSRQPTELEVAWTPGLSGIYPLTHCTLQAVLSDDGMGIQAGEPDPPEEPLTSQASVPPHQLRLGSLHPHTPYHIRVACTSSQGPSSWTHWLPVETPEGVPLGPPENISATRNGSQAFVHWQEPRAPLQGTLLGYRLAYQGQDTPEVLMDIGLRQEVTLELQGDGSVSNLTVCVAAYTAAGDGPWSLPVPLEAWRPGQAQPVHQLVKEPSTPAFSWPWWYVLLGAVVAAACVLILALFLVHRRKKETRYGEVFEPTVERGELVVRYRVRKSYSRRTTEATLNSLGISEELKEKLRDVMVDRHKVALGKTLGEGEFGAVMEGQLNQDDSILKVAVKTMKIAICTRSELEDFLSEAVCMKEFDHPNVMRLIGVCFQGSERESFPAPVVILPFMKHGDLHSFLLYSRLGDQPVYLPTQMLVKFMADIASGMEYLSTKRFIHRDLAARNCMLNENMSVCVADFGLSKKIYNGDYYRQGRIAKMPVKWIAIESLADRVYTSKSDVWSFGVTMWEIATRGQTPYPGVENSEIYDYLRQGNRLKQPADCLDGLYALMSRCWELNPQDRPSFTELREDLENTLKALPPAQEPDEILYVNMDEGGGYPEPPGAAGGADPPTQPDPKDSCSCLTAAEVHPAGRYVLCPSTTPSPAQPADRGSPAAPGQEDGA
Summary of the method: (§1)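 Each compound was added at 10 µM, kinase activity was then measured via the standard Z′-LYTE assay, and percentage inhibition was calculated; 225 kinases were covered.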

[2] = biological target: T2, BRSK1 (SAD1) (Homo sapiens, UniProt Q8TDC3)
T2 construct: purchased ThermoFisher (SelectScreen, Z'-LYTE)
T2 sequence (Q8TDC3 1-778): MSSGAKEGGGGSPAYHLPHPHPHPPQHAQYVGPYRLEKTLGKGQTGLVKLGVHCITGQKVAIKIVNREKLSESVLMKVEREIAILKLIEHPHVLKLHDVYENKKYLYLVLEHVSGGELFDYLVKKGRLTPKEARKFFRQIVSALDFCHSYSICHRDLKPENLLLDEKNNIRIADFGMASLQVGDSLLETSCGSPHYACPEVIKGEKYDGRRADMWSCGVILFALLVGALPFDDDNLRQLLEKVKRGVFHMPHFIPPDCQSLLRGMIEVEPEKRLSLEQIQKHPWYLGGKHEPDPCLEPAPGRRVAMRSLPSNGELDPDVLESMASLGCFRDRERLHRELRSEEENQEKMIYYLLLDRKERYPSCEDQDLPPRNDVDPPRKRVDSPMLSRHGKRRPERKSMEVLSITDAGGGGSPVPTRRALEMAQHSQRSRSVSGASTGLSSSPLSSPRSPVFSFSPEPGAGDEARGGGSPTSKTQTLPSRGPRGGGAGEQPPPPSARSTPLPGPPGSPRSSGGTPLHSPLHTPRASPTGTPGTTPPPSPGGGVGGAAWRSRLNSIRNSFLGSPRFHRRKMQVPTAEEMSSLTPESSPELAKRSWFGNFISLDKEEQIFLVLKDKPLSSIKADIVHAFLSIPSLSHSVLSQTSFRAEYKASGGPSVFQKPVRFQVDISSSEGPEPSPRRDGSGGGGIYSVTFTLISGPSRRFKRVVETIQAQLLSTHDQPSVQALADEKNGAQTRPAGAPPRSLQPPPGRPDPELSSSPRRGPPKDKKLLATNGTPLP
Summary of the method: as §1

[3] = biological target: T3, CAMK1D (CaMKI delta) (Homo sapiens, UniProt Q8IU85)
T3 construct: purchased ThermoFisher (SelectScreen, Z'-LYTE)
Summary of the method: as §1

[4] = biological target: T4, CDC42 BPB (MRCKB) (Homo sapiens, UniProt Q9Y5S2)
T4 construct: purchased ThermoFisher (SelectScreen, Z'-LYTE)
Summary of the method: as §1

[5] = biological target: T5, EPHA2 (Homo sapiens, UniProt P29317)
T5 construct: purchased ThermoFisher (SelectScreen, Z'-LYTE)
T5 sequence (P29317 24-976): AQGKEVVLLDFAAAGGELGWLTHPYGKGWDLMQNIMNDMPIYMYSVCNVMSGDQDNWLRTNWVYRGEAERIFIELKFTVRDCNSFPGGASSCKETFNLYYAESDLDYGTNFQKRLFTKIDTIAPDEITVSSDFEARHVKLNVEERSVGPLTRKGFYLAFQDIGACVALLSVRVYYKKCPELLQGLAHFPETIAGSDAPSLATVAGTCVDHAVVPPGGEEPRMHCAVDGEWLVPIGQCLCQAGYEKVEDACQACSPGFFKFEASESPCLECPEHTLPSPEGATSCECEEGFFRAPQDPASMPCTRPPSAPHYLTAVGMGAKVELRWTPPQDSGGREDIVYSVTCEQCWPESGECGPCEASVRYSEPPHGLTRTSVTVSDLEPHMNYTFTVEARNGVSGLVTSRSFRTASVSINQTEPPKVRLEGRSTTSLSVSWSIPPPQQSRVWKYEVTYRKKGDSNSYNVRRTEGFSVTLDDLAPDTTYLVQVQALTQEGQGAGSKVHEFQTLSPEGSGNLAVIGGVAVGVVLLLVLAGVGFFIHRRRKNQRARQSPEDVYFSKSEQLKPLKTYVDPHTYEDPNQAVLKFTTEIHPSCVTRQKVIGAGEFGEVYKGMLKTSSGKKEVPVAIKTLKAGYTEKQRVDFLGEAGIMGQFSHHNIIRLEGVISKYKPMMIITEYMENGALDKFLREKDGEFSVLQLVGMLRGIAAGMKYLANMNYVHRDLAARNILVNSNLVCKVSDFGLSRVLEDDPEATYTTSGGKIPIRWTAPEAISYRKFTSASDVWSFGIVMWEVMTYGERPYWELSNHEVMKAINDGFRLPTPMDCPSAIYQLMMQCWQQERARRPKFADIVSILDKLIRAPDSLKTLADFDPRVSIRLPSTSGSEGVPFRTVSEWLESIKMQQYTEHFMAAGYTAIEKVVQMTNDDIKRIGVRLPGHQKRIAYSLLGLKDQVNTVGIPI
Summary of the method: as §1

[6] = biological target: T6, FLT4 (VEGFR3) (Homo sapiens, UniProt P35916); conditions: 10 µM compound, ATP Km app
T6 construct: purchased ThermoFisher (SelectScreen, Z'-LYTE)
Summary of the method: as §1

[7] = biological target: T7, GSK3A (GSK3 alpha) (Homo sapiens, UniProt P49840); conditions: 10 µM compound, ATP Km app
T7 construct: purchased ThermoFisher (SelectScreen, Z'-LYTE)
T7 sequence (P49840 whole entry): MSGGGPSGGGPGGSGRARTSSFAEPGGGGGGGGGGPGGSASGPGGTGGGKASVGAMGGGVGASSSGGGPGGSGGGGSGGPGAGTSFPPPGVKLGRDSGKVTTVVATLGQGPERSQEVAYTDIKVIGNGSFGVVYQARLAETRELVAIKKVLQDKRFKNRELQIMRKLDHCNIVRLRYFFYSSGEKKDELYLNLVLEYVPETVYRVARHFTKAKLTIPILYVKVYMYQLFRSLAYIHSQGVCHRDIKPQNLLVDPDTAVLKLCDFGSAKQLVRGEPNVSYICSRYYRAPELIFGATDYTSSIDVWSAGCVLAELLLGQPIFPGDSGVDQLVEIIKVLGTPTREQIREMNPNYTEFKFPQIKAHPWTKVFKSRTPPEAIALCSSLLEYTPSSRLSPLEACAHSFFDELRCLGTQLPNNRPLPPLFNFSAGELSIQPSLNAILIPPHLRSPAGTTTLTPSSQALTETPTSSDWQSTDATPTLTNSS
Summary of the method: as §1

[8] = biological target: T8, MAP2K2 (MEK2) (Homo sapiens, UniProt P36507); conditions: 10 µM compound; ATP 100
T8 construct: purchased ThermoFisher (SelectScreen, Z'-LYTE)
Summary of the method: as §1

[9] = biological target: T9, MAP3K9 (MLK1) (Homo sapiens, UniProt P80192)
T9 construct: purchased ThermoFisher (SelectScreen, Z'-LYTE)
T9 sequence (P80192 whole entry): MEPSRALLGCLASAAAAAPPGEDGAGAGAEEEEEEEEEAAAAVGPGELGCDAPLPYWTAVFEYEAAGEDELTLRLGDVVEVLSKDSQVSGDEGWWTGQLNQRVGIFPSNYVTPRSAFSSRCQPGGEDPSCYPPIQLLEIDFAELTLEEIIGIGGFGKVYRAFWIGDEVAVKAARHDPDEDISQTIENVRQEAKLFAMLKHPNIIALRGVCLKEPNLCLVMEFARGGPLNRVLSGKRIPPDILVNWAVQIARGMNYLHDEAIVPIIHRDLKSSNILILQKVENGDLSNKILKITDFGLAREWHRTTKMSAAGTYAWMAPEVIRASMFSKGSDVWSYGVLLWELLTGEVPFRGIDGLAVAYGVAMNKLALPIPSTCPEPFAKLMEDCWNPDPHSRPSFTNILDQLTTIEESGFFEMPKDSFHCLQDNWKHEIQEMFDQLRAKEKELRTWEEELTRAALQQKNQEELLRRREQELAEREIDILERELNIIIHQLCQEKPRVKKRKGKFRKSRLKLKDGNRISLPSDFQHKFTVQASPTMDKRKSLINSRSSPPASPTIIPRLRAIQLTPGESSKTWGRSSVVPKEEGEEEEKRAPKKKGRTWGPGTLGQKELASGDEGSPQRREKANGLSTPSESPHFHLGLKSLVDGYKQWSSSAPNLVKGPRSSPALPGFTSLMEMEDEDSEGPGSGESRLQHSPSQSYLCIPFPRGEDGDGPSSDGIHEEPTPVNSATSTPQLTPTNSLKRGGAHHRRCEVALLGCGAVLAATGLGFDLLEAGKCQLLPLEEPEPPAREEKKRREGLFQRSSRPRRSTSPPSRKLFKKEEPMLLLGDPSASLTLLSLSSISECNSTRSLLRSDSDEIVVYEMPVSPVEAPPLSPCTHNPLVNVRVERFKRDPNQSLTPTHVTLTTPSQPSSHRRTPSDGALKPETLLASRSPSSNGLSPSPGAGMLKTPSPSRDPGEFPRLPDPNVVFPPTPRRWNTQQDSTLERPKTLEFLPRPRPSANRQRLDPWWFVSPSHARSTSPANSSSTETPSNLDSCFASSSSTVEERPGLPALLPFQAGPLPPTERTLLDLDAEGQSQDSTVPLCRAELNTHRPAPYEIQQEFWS
Summary of the method: as §1

[10] = biological target: T10, MAP4K5 (KHS1) (Homo sapiens, UniProt Q9Y4K4)
T10 construct: purchased ThermoFisher (SelectScreen, Z'-LYTE)
T10 sequence (Q9Y4K4 whole entry): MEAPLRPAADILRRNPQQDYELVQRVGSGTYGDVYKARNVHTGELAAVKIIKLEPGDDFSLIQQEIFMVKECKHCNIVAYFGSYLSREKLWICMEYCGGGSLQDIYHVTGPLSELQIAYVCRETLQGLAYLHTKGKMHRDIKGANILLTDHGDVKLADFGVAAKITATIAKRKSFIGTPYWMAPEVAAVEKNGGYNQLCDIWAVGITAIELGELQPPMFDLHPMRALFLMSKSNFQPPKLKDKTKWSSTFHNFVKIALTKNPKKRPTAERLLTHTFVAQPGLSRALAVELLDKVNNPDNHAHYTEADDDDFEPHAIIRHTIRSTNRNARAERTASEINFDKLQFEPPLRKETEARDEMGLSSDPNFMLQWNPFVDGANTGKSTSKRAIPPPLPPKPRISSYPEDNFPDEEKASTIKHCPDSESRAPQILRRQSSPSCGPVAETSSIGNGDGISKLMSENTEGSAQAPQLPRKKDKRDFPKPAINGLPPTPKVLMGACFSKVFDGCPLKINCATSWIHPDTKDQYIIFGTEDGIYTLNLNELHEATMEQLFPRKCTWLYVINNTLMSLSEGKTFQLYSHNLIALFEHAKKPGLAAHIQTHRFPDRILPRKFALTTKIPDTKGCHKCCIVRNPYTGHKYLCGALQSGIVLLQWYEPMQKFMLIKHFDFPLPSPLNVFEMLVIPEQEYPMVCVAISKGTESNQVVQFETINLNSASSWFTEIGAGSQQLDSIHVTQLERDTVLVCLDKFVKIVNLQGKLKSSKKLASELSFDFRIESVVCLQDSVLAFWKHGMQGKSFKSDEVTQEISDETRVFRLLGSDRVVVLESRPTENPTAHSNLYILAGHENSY
Summary of the method: as §1

[11] = biological target: T11, MARK1 (MARK) (Homo sapiens, UniProt Q9P0L2)
T11 construct: purchased ThermoFisher (SelectScreen, Z'-LYTE)
T11 sequence (Q9P0L2 whole entry): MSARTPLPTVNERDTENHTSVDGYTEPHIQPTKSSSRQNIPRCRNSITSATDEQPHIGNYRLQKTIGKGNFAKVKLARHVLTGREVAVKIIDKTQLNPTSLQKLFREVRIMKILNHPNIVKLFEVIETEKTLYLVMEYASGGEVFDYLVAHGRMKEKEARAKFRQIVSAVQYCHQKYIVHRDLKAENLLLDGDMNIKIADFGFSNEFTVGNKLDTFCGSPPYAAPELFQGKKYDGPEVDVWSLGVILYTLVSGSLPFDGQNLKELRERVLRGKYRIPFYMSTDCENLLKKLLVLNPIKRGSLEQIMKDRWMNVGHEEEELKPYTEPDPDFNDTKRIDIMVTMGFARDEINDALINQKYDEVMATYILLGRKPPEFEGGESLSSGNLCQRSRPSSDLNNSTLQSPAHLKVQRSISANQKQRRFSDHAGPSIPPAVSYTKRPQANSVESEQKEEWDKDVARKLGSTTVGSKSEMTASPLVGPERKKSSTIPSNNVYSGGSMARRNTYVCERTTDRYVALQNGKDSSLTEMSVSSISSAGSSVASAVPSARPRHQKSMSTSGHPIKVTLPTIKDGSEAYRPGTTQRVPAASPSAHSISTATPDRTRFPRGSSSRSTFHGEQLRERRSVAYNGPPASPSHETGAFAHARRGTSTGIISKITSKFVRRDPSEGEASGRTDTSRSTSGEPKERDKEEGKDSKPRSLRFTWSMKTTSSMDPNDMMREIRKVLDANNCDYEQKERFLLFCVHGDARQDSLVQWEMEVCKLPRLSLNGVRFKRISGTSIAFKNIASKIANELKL
Summary of the method: as §1

[12] = biological target: T12, RPS6KA1 (RSK1) (Homo sapiens, UniProt Q15418)
T12 construct: purchased ThermoFisher (SelectScreen, Z'-LYTE)
T12 sequence (Q15418 whole entry): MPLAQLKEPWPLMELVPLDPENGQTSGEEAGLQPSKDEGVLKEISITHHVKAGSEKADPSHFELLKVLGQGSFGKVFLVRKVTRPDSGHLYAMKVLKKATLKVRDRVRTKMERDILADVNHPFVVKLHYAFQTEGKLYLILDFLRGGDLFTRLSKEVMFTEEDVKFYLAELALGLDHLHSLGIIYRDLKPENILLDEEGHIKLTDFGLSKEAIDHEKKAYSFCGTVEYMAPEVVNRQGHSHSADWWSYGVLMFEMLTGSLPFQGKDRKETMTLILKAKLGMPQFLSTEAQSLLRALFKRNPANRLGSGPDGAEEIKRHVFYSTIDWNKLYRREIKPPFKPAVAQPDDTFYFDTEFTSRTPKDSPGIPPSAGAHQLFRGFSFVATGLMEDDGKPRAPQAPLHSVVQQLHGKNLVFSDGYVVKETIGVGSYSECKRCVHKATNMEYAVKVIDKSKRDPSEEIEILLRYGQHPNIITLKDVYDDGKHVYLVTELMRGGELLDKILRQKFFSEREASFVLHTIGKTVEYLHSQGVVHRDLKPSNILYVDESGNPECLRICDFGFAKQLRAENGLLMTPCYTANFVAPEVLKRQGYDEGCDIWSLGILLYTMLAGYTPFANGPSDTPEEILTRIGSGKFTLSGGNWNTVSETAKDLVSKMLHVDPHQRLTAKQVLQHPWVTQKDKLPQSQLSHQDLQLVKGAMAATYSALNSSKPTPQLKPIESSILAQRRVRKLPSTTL
Summary of the method: as §1

[13] = biological target: T13, RPS6KA2 (RSK3) (Homo sapiens, UniProt Q15349)
T13 construct: purchased ThermoFisher (SelectScreen, Z'-LYTE)
Summary of the method: as §1

[14] = biological target: T14, STK22D (TSSK1) (Homo sapiens, UniProt Q9BXA7)
T14 construct: purchased ThermoFisher (SelectScreen, Z'-LYTE)
T14 sequence (Q9BXA7 1-367): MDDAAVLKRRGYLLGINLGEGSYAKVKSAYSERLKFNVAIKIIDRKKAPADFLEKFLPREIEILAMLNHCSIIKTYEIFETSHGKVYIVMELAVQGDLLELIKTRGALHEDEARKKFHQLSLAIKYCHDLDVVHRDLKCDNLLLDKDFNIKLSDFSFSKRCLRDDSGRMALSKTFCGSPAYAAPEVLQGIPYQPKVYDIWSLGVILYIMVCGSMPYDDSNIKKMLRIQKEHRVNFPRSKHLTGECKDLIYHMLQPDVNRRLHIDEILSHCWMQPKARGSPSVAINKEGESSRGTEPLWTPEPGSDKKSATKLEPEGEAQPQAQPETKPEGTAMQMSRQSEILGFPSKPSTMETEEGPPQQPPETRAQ
Summary of the method: as §1

Row | Compound | inhibition at 10 µM [1] [%] | inhibition at 10 µM [2] [%] | inhibition at 10 µM [3] [%] | inhibition at 10 µM [4] [%] | inhibition at 10 µM [5] [%] | inhibition at 10 µM [6] [%] | inhibition at 10 µM [7] [%] | inhibition at 10 µM [8] [%] | inhibition at 10 µM [9] [%] | inhibition at 10 µM [10] [%] | inhibition at 10 µM [11] [%] | inhibition at 10 µM [12] [%] | inhibition at 10 µM [13] [%] | inhibition at 10 µM [14] [%] | other results
1 | XMD8-92 [Compound 2, reference compound] | – | – | – | – | – | – | – | – | – | – | – | – | – | – | AXL % Inhibition ([1]; 10 µM compound, ATP Km app): 3%; BRSK1 (SAD1) % Inhibition ([2]; 10 µM compound, ATP Km app): 80%; CAMK1D (CaMKI delta) % Inhibition ([3]; 10 µM compound, ATP Km app): 19%; CDC42 BPB (MRCKB) % Inhibition ([4]; 10 µM compound, ATP Km app): -11%; EPHA2 % Inhibition ([5]; 10 µM compound, ATP Km app): -9.52%; FLT4 (VEGFR3) % Inhibition [6]: 4%; GSK3A (GSK3 alpha) % Inhibition [7]: 35%; MAP2K2 (MEK2) % Inhibition [8]: 24%; MAP3K9 (MLK1) % Inhibition ([9]; 10 µM compound, ATP Km app): 8.53%; MAP4K5 (KHS1) % Inhibition ([10]; 10 µM compound, ATP Km app): 85%; MARK1 (MARK) % Inhibition ([11]; 10 µM compound, ATP Km app): 11%; RPS6KA1 (RSK1) % Inhibition ([12]; 10 µM compound, ATP Km app): 5.45%; RPS6KA2 (RSK3) % Inhibition ([13]; 10 µM compound, ATP Km app): 23%; STK22D (TSSK1) % Inhibition ([14]; 10 µM compound, ATP Km app): 11%
2 | Cc1ncc(-c2nc(Nc3ccc(C(=O)NCCN4CCCCC4)cc3)ncc2F)n1C(C)C [Compound 3] | 95 | 91 | 59 | 8 | 69 | 99 | 98 | 94 | 92 | 97 | 87 | 69 | 90 | 81 | –
3 | Cc1cc(Nc2nc(N)nn2C(=O)NC(C)C)ccc1Cl [Compound 5] | 18 | 35 | 0.357 | 5.45 | -1.47 | > 80 | > 80 | 21 | 69 | 65 | 17 | 36 | 70 | 21 | FLT4 (VEGFR3) % Inhibition ([6]; listed as SN1109056190, 10 µM): 86%; GSK3A (GSK3 alpha) % Inhibition ([7]; listed as SN1109056190, 10 µM): 82%
